In EP0499831A2, “Combination of active agents comprising a sydnonimin derivate and a hirudin” (CASSELLA Aktiengesellschaft, priority 1991, dated 1992):

Experiments:
[1] = Systolic and diastolic peripheral arterial blood pressure measured in the same animals; format: in vivo, Hausschweinen; conditions: Molsidomin 0.1 mg/kg i.v. alone (Gruppe 1) or with r-Hirudin total 0.2 mg/kg i.v. (Gruppe 3)
Source text: Diese Wirkung wurde in folgendem Test ermittelt: Bei männlichen, ca. 4 Monate alten Hausschweinen wurde eine Coronarthrombose nach der Methode von Folts et al (Circulation 1976, 54; 365 - 70) erzeugt. Bei den tief narkotisierten Tieren wurde der Thorax eröffnet; die linke absteigende Coronararterie wurde freipräpariert und mit einem elektromagnetischen Blutströmungsmeßkopf versehen. Distal des Meßkopfes wurde das Coronargefäß durch kurzes (1 s) Quetschen mit einer Gefäßklemme geschädigt. Auf diese Stelle wurde ein Plastikkonstriktor (innerer Durchmesser 1.7 - 2.8 mm, Länge 2 mm) gesetzt, der das Gefäß stenosiert. Diese Versuchsbedingungen führten zum Auftreten regelmäßiger zyklischer Blutströmungsveränderungen (CFV's), verursacht durch die wiederholte Bildung und Embolisierung von Thromben an der geschädigten stenosierten Stelle. Die Thromben wurden durch Bestimmung der Frequenz (Anzahl pro 60 min) der zyklischen Blutströmungsveränderungen quantifiziert. […]

[2] = tested on: Coronarthrombose; assay: Coronary thrombosis by the method of Folts et al.: frequency of cyclic blood flow variations (CFV's) in the damaged, stenosed left descending coronary artery of anaesthetised pigs; format: in vivo, Hausschweinen
Protocol: Bei den tief narkotisierten Tieren wurde der Thorax eröffnet; die linke absteigende Coronararterie wurde freipräpariert und mit einem elektromagnetischen Blutströmungsmeßkopf versehen. Distal des Meßkopfes wurde das Coronargefäß durch kurzes (1 s) Quetschen mit einer Gefäßklemme geschädigt. Auf diese Stelle wurde ein Plastikkonstriktor (innerer Durchmesser 1.7 - 2.8 mm, Länge 2 mm) gesetzt, der das Gefäß stenosiert. […] Die Thromben wurden durch Bestimmung der Frequenz (Anzahl pro 60 min) der zyklischen Blutströmungsveränderungen quantifiziert. […] 0.1 mg/kg Molsidomin i.v. zusammen mit 0.1 mg/kg r-Hirudin i.v., gefolgt von 0.1 mg/kg·60 min r-Hirudin - Infusion.
Der Versuch wurde 1 Stunde nach Ende der Infusion bzw. 2 Stunden nach Bolusinjektion der Substanzen beendet. Die Frequenzen der zyklischen Blutströmungsveränderungen in der Stunde vor und in der ersten und zweiten Stunde nach Injektion der Prüfsubstanzen wurden für jede Versuchsgruppe gemittelt. Die mittleren Frequenzen der Zyklen vor und nach Substanzverabreichung wurden statistisch miteinander verglichen (Student-t-Test für verbundene Stichproben). Ein p - Wert von < 0.05 galt als signifikanter Unterschied.

CCOC(=O)[N-]c1cn(N2CCOCC2)n[o+]1 [Molsidomin, N-Ethoxycarbonyl-3-morpholino-sydnonimin]
Senkung des diastolischen Blutdrucks ([1]; decrease not significant): 10 ± 5 mm Hg | Senkung des systolischen Blutdrucks ([1]; maximal decrease, p < 0.05): 18 ± 5 mm Hg | Anzahl thrombotischer Flowzyklen (n/60 min) 1. Stunde nach Substanzinjektion ([2]; 1st hour after injection, Molsidomin 0.1 mg/kg i.v. bolus, r-Hirudin total 0.2 mg/kg (0.1 mg/kg i.v. bolus + i.v. infusion over 60 min), combination: both, n=6): 19 ± 3 n/60 min | Anzahl thrombotischer Flowzyklen (n/60 min) 1. Stunde Vorphase ([2]; baseline hour before substance injection, mean of group, n=6): 16 ± 2 n/60 min | antithrombotische Wirkung der Einzeldosierungen ([2]; preliminary experiments (Vorversuche), single doses: Molsidomin 0.1 mg/kg i.v., r-Hirudin total 0.2 mg/kg i.v.): gerade nicht antithrombotisch wirkend
